Results taken from ChEMBL document CHEMBL1201862, “PubChem BioAssay data set” (2004).
Activity calls are given as the source filed them.

How the values were obtained:
[1] = molecular target: Lytic switch protein BZLF1 (Epstein-Barr virus (strain B95-8) (HHV-4) (Human herpesvirus 4), UniProt P03206); assay: EBV ZTA inhibitors, dose response, counter-screen for EBNA-1 inhibitor project, biochemical, fluorescence polarization, Epstein-Barr virus, 1536-well (AID 2377); parameters: species or system human gammaherpesvirus 4;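 note: fluorescence polarization of Cy5-labelled ZRE DNA probe bound by purified Zta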
Lytic switch protein BZLF1, sequence (P03206 whole entry): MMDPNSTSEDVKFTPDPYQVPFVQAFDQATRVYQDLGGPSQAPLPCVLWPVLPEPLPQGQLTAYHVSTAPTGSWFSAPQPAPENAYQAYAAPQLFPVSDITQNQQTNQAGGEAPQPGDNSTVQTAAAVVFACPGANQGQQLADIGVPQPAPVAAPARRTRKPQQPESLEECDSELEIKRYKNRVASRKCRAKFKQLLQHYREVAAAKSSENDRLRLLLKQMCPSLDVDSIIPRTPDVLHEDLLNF

[2] = molecular target: Epstein-Barr nuclear antigen 1 (Epstein-Barr virus (strain B95-8) (HHV-4) (Human herpesvirus 4), UniProt P03211); assay: EBNA-1 inhibitors, dose response, biochemical, fluorescence polarization, 1536-well (AID 2381); parameters: species or system human gammaherpesvirus 4;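 note: fluorescence polarization of a Cy5 DNA probe bound by EBNA-1 protein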
Epstein-Barr nuclear antigen 1, sequence (P03211 whole entry): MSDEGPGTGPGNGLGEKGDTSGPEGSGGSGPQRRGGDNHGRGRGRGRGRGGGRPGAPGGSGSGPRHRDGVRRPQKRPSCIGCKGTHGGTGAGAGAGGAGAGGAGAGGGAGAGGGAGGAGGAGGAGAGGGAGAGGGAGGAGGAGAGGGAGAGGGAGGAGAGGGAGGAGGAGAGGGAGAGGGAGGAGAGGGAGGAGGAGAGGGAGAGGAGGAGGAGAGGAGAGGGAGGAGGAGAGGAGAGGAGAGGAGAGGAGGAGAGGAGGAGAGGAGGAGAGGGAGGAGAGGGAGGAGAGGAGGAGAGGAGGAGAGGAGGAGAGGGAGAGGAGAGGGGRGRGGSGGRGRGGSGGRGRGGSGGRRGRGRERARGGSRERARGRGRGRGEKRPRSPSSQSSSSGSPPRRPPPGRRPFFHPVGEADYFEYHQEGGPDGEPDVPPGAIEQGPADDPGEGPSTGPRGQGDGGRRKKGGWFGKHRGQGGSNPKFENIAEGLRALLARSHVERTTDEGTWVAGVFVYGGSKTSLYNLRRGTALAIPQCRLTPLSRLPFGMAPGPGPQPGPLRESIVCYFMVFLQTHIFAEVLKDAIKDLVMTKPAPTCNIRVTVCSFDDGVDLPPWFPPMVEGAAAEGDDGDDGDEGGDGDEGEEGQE

Insulin-degrading enzyme = molecular target: T1, Insulin-degrading enzyme (Homo sapiens, UniProt P14735); assay: Dose Response: Fluorescence polarization-based cell-based high throughput dose response assay for inhibitors of insulin-degrading enzyme (IDE). [Related pubchem assays: 434962 (Primary screen (IDE inhibitors in singlicate)), 449730 (Counterscreen (Cytotoxicity in triplicate)), 435028 (Confirmation (IDE inhibitors in triplicate)), 434984 (Summary …; assay type: functional
T1 sequence (P14735 whole entry): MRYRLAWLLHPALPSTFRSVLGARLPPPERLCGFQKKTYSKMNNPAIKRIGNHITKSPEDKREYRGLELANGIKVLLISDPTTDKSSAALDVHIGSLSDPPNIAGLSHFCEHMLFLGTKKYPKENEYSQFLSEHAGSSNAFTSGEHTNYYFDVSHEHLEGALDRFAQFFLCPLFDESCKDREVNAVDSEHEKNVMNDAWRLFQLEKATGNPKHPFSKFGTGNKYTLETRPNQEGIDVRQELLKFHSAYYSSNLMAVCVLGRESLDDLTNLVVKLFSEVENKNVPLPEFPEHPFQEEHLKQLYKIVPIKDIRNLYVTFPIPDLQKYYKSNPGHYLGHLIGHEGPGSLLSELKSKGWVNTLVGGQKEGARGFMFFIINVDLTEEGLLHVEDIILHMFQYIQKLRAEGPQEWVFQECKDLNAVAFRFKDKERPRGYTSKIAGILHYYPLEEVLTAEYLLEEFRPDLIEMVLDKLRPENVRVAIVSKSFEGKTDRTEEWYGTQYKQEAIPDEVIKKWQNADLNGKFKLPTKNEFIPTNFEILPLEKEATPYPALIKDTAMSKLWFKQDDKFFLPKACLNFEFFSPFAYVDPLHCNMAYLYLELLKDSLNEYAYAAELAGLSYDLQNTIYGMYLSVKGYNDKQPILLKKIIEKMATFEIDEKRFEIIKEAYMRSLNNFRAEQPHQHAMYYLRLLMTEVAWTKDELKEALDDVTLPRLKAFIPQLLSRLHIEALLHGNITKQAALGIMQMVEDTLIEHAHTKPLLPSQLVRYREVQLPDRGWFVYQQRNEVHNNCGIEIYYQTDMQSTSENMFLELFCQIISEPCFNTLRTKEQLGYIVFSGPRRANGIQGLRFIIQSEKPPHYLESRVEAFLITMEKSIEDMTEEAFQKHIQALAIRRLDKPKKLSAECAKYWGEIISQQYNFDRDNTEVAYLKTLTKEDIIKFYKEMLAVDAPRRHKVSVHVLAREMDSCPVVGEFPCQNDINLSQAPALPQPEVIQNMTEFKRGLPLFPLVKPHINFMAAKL

Oxytocin receptor = Oxytocin receptor (Homo sapiens, UniProt P30559); assay: Counterscreen for vasopressin 1 receptor (V1R) agonists: Fluorescence-based cell-based high throughput dose response assay for agonists of the Oxytocin Receptor (OXTR). [Related pubchem assays: 2435 (Primary screen (OXTR agonists in singlicate)), 434964 (Confirmation screen (V1R agonists in triplicate)), 434969 (Counterscreen (OXTR agonists in …; assay type: functional
Oxytocin receptor, sequence (P30559 whole entry): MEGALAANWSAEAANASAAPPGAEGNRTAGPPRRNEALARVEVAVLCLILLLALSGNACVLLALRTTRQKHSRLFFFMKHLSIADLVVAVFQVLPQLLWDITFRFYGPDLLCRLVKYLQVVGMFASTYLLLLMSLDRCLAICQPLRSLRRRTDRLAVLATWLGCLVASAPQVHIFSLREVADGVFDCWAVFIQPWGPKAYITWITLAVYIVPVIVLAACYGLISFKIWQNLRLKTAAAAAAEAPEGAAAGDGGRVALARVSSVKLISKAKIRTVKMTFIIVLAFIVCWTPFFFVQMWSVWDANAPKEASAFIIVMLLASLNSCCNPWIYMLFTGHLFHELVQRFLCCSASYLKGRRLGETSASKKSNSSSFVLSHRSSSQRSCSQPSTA

Vasopressin V1a receptor = Vasopressin V1a receptor (Homo sapiens, UniProt P37288); assay: Fluorescence-based cell-based high throughput dose response screening assay for agonists of the vasopressin 1 receptor (V1R).; assay type: functional
Vasopressin V1a receptor, sequence (P37288 whole entry): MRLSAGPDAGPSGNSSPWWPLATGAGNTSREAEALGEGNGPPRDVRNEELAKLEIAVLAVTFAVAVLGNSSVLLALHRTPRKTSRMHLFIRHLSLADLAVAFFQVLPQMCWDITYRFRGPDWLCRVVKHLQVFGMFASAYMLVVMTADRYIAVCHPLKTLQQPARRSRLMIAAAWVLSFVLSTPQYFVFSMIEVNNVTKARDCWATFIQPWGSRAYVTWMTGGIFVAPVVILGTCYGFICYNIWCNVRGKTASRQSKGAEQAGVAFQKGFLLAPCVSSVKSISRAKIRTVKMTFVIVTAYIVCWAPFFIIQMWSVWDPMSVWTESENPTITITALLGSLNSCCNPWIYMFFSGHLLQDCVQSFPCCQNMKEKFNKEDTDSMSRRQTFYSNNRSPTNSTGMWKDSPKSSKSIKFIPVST

[3] = Counterscreen for IDE inhibitors: Luminescence-based cell-based high throughput dose response assay to identify compounds that are cytotoxic to HEK cells. [Related pubchem assays: 434962 (Primary screen (IDE inhibitors in singlicate)), 449730 (Counterscreen (Cytotoxicity in triplicate)), 435028 (Confirmation (IDE inhibitors in triplicate)) …; assay type: functional; conditions: HEK293
Bcl-2-like protein 10 = molecular target: T2, Bcl-2-like protein 10 (Homo sapiens, UniProt Q9HD36); assay: displacers of TR3 peptide from Bcl-B, primary screen, selectivity assay for Bfl-1 inhibitor project, biochemical, fluorescence polarization, FITC-TR3 peptide (AID 748);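 note: fluorescence polarization from a fluorescein-labelled TR3 peptide binding purified Bcl-B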
T2 sequence (Q9HD36 whole entry): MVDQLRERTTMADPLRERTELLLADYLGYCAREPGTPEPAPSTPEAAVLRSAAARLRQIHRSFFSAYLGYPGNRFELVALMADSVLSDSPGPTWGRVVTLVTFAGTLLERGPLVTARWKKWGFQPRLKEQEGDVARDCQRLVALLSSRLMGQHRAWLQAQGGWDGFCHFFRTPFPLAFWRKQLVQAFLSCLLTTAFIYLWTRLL

Estrogen receptor = molecular target: T3, Estrogen receptor (Homo sapiens, UniProt P03372);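 note: potency for inhibiting coactivator peptide recruitment to the receptor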
T3 sequence (P03372 whole entry): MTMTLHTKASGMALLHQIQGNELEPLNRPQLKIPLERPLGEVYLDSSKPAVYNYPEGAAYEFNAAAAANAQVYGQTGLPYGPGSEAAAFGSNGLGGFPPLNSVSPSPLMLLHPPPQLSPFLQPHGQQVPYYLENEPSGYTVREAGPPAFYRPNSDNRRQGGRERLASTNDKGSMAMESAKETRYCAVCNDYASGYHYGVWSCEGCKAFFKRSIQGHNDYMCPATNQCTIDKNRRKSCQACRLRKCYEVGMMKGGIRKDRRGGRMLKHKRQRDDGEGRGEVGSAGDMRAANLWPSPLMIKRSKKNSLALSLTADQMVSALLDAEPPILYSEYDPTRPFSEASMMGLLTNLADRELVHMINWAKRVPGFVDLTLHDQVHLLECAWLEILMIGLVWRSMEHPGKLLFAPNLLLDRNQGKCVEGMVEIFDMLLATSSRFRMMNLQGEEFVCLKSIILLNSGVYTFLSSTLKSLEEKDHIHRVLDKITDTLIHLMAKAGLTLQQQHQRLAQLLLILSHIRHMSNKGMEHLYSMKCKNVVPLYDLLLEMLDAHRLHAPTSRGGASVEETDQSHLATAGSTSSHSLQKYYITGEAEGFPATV

For `O=C(CSc1nc2ccc(NC(=O)CSc3nnnn3-c3ccccc3)cc2s1)Nc1ccccc1`, the IC50 [1] was > 111 µM (not active) and the IC50 [2] was 12 µM (not active).
In the case of `CC(OC(=O)/C(C#N)=C/c1ccc(N(C)C)cc1)C(=O)N(C)Cc1ccccc1` (stereo not drawn), the IC50 (Insulin-degrading enzyme) is reported as 12.8 µM (not active), the EC50 (Oxytocin receptor) is reported as > 9.97 µM (active) and the EC50 (Vasopressin V1a receptor) is reported as > 3.32 µM (active). The IC50 [3] was 16.5 µM (not active).
For `CCOC(=O)C1=C(C)S/C(=C\N(C)C)C1=O`, the IC50 (Bcl-2-like protein 10) was 37.8 µM (active) and the IC50 (Estrogen receptor) was 40.3 µM (not active).
